Source: publication PMC6752817, “Identification and characterization of a novel heparan sulfate-binding domain in Activin A longest variants and implications for function” (PLoS ONE, 2019)
“Also recorded” adds a separate entry of the source.

Assays:
[1] = system: Act A X1 and X2 variant transcripts in U937 cells; assay: Induction of Act A variant transcripts in U937 cells, PCR; format: cell-based, human
Method: (§1) Total RNA was isolated using TRIzol Reagent (Thermo-Fisher) following the manufacturers protocol. Five μg of glycogen (Thermo-Fisher AM9510) was added to the aqueous phase prior to the addition of isopropanol to facilitate RNA precipitation. For some experiments, RNA quantification was determined using a Nanodrop spectrophotometer. cDNA was prepared from 2 μg of purified RNA, using oligo dT as primer, supplied with the Verso cDNA synthesis kit (Thermo-Fisher # AB1453A) or SuperScript IV Reverse Transcriptase (Thermo-Fisher #18090010) following the manufactures protocol. All PCR reactions were performed using Act A specific primers and GoTaq Green Master Mix (Promega) following the manufacturers protocols. PCR reactions were optimized by gradient PCR, using an Applied Biosystems Veriti Thermal Cycler. PCR products were size fractionated on 1% agarose gels, the bands were isolated, DNA was extracted from gel slices using Micro Bio-Spin columns (Bio Rad# 7326204) and sequenced. All DNA sequencing was performed by the NAPCore Facility at CHOP.
(§2) U937 (human pro-monocytic) and THP-1 (human monocytic) cell lines were grown in RPMI containing 10% fetal bovine serum in a humidified atmosphere of 5% CO2. Cells were treated with PMA (100 ng/ml; 160 nM) for 4 hr (23) or GM-CSF (1 ng/ml) for 8 hr in RPMI containing 1% fetal bovine serum.

[2] = Solid-phase binding of biotinylated peptides (NA-HRP tetramers) to HS-coated plates; conditions: for Binding to substrate-bound HS: HS-coated 96-well plates, peptide tetramers with NA-HRP, PBST with 1% BSA, 2 hr, room temperature, OPD read at 450 nm; for Binding to HS in presence of heparin competitor: HS-coated plates, pre-incubation of peptide with excess soluble heparin
Method: Fig 6 Peptides corresponding to the novel HBD bind HS with high affinity. 96-well plates were coated with HS and incubated with tetrameric peptide complexes (HBC) for 2 hrs. Plates were washed, and bound peptides were assessed by addition of OPD substrate. A and B, schematic diagram depict the amino acid sequences of Act A- X2^13-37 and Act A- X3^259-272 peptides and their location within the full-length proteins, respectively. C, solid phase binding assays of Act A peptides to HS. […] Inset, double reciprocal plot that yields a Kd of 4 nM (n = 3) for Act A- X2^13-37.
Peptides encompassing the heparin binding domains, contained the putative Cardin-Weintraub (CW) motif and a minimum of 2 flanking amino acids on the N- and C- terminal sides of the domain. Three Glycine residues were added to the N-terminus of each peptide to provide a flexible linker between an N-terminal biotin tag and the peptide itself (See Table 6). Peptides were purified by reverse phase HPLC and peptide mass was confirmed by MALDI-TOF mass spectrometry. All peptides were synthesized and purified by Peptide 2 (Chantilly, VA). Where indicated, biotinylated peptides were oligomerized into tetramers by incubation with NAHRP (each avidin molecule binding 4 biotins ([57]) as described.
Nunc MaxiSorp flat bottom 96 well plates were coated with HS in 50 mM carbonate buffer (pH 9.4) overnight at 4°C as described. All binding assays were carried out in 1 x PBS, 0.1% tween 20 (PBST) containing 1% bovine serum albumin. Plates were incubated with peptides for a minimum of 2 hr at room temperature with gentle shaking. At the termination of the assay, the plates were washed 3 times with PBST and a final rinse with PBS. Plates were developed by addition of HRP substrate O-phenylenediamine dihydrochloride (OPD) in Citrate-Phosphate buffer (25 mM citric acid, 50 mM sodium phosphate, pH 5) and read at 450 nm in a Bio-Tek Synergy HT plate reader.

[3] = system: U937 cell surface; assay: Peptide binding to intact U937 cells, FACS; format: cell-based, human; conditions: formalin-fixed U937 cells; for Binding to U937 cell surface: biotinylated peptide complexed with NA-488, 2 hr on ice, FACS (FL1); for Binding to U937 cell surface in presence of heparin competitor: peptide complexed with NA-488, excess soluble heparin, FACS
Method: Fig 7 HBD peptides bind to the cell surface with avidity. A, U937 cells were incubated with peptide complexes consisting of biotinylated peptides pre-incubated with NA-488. Following incubation, the cells were washed, and bound peptide was assessed by FACS analysis. […] In contrast, Act A-X3^259-272 peptide fails to bind. Binding specificity was verified using a previously characterized peptide encompassing the high affinity HBD from BMP4. B, representative FACS plots show binding of Act A- X2^13-37 in the absence (blue line) or presence (red line) of heparin competitor. C, representative FACS plots showing binding of Act A- X2^13-37 (blue line), lack of binding by Act A-X3^259-272 (red line) and background signal generated by U937 cells alone (green line). Statistical Analysis (Student’s t test): NA488 vs ActA X2^13-37, NA488 vs BMP4: ****: P< = 0.0001, **: P< = 0.01.
U937 cells were washed with PBS and fixed with 2% buffered formalin for 20 min on ice. The cells were washed with PBS and blocked by incubation in PBS, 1% BSA for 20 min on ice. Approximately […] cells (100 μl) were incubated with peptide tetramers consisting of biotinylated peptide complexed with NA-488. Following incubation for 2 hr on ice, the cells were washed and analyzed on a BD Accuri Flow Cytometer (FL1 channel), located in the Flow Cytometry Core Laboratory at CHOP.

[4] = system: Act A X1 and X2 variant transcripts in THP1 cells; assay: Induction of Act A variant transcripts in THP1 cells, PCR; format: cell-based, human; conditions: GM-CSF 1 ng/ml for 8 hr
Method: as §1, §2

[5] = system: Act A expression in purified human monocytes; conditions: ref [41]; cited from earlier work
Method: It should be noted that the above transcript/protein predictions of variants are based on computational genomic analyses that were conducted initially by the MGC team using ESTs to explore the transcriptome and then subsequently confirmed by whole genome sequencing and bioinformatics. Much of the past and recent extensive literature on Act A has utilized recombinant forms of the X3 variant, but currently there is little information about the expression and structural characteristics of the X1 and X2 variants. Thus, we first asked whether these variants are expressed by myel ...

[6] = rat, in vivo, iv; cited from earlier work
Excerpt: As pointed out above, past and recent studies on Act A biology and function have made use of the X3 variant or the mature protein but to our knowledge, the X1 or X2 variants have not been tested. For example, Harrington et al. used recombinant Act A mature protein to clarify the structural basis by which Fs inhibits Act A signaling. […] Wang et al. carried out a detailed analysis of mechanisms involved in initiation of Act A biological activity, using the X3 ...

[7] = system: TIEG expression in THP1 cells; assay: TIEG (KLF10) mRNA induction in THP1 cells, qPCR; format: cell-based, human; conditions: 2 hr, rhAct A or conditioned medium of AD293 cells transfected with X2 or X3 constructs
Excerpt: Fig 4 Expression and secretion of Act A variants. Expression constructs for full length X1, X2 and X3 variants were cloned into pcDNA 3.1 and transfected into AD293 and COS1 cells. A, diagram of Act A expression cassette with His tag on the 3’ end. […] Untransfected cells are shown in lane 2. […] D, immunoblots of conditioned medium samples separated under reducing conditions and probed with anti-His tag antibody. […] The band was undetectable in conditioned medium from cells transfected with the X1 vector (lanes 1, 4 and 9) or un-transfected cells (lanes 7 and 8). Lanes 4–6 are a longer exposure of lanes 1–3. E, THP1 cells were incubated for 2 hrs with conditioned media from AD293 cells that were untransfected (U) or transfected with X2 or X3 constructs. The cells were processed for q-PCR analysis of TIEG expression, an early response gene induced by Act A and TGF-β. […]
To assess biological activity of the expressed Act A variants, THP1 cells were incubated with 3 ml of conditioned medium obtained from cells transfected with each Act A variant for 2 hr, in the absence or presences of an ActA neutralizing antibody (BioLegend # 94746) the cells were pelleted and total RNA was isolated using TRIzol Reagent as described above. Induction of Kruppel-like factor 10 (KLF10, TIEG; accession NM_005655) mRNA, an early response gene induced by Act A and TGF-β was assessed by qPCR.

[8] = PMA 100 ng/ml (160 nM) for 4 hr, semi-quantitative PCR

Molecule: CCCCCCCCCCCCCC(=O)O[C@@H]1[C@@H](C)[C@@]2(O)[C@@H](C=C(CO)C[C@]3(O)C(=O)C(C)=C[C@@H]23)[C@@H]2C(C)(C)[C@]12OC(C)=O [PMA, Phorbol 12-myristate 13-acetate, reference compound]
- Expression of Act A X1 variant transcript in U937 cells [1, 8]: undetectable
- Expression of Act A X2 variant transcript in U937 cells [1, 8]: stimulated expression of transcripts encoding the X2 variant in U937 cells; also recorded: induced expression of Act A-X2

Molecule: [B]-GGGGKKKKKEEEGEGKKK [X3^259-272]
- Binding to substrate-bound HS [2]: failed to interact with HS at any concentration tested; also recorded: failed to interact with substrate-bound HS
- Binding to substrate-bound HS ([2]; listed as Act A-X3^259-272): displays minimal binding
- Binding to U937 cell surface [3]: failed to interact with the cells; also recorded: failed to interact with substrate-bound HS or the cell surface
- Binding to U937 cell surface ([3]; listed as Act A-X3^259-272): fails to bind

Molecule: [B]-GGGLKRRRKKKTPKKKIKKSTHTKKPAR [X2^13-37, biotinylated synthetic peptide encompassing the novel HBD, identical in X1 and X2]
- Binding to substrate-bound HS [2]: interacted with HS with high affinity
- Binding to substrate-bound HS ([2]; listed as Act A- X2^13-37): binds HS with high affinity
- Binding to HS in presence of heparin competitor [2]: binding was blocked by pre-incubation of the peptide with excess heparin
- Binding to HS in presence of heparin competitor ([2]; listed as Act A- X2^13-37): its binding is blocked by addition of soluble heparin
- Binding to U937 cell surface [3]: readily and efficiently interacted with the cell surface
- Binding to U937 cell surface ([3]; listed as Act A- X2^13-37): readily binds to the cell surface
- Binding to U937 cell surface in presence of heparin competitor [3]: binding was blocked by pre-treatment with heparin
- Binding to U937 cell surface in presence of heparin competitor ([3]; listed as Act A- X2^13-37): its interaction is blocked by soluble heparin competitor

Molecule: granulocyte macrophage-colony stimulating factor [GM-CSF]
- Expression of Act A X1 variant transcript in U937 cells ([1]; GM-CSF 1 ng/ml for 8 hr, PCR): only stimulated expression of the X1 variant in U937 cells; also recorded: induced expression of both Act A-X2 and -X1
- Expression of Act A X2 variant transcript in U937 cells ([1]; GM-CSF 1 ng/ml for 8 hr, PCR): upregulated the X2 variant in both cell lines; also recorded: induced expression of both Act A-X2 and -X1
- Expression of Act A X2 variant transcript in THP1 cells [4]: upregulated the X2 variant in both cell lines; also recorded: induced expression of Act A-X2
- Induction of Act A expression in purified human monocytes [5]: induces strong expression of Act A in purified human monocytes

Molecule: mature protein: mature Act A protein (cited studies)
- Circulating half-life (t1/2 fast) [6]: 5.5 min

B1: rhAct A: commercially available recombinant human Act A (protein, UniProt P08476 311-426, looked up)
Inhibin beta A chain: GLECDGKVNICCKKQFFVSFKDIGWNDWIIAPSGYHANYCEGECPSHIAGTSGSSLSFHSTVINHYRMRGHSPFANLKSCCVPTKLRPMSMLYYDDGQNIIKKDIQNMIVEECGCS
modifications: Inhibin beta A chain
- Induction of TIEG expression (words) [7]: TIEG was rapidly upregulated
- Induction of TIEG expression (words) ([7]; listed as rhActA): up-regulated
